Results taken from patent US8933147B2, “Anti-microbial dental impression material” (3M Innovative Properties Company, priority 2005, dated 2015).

Legend:
[1] = tested on: Streptococcus mutans (DSM 20523); experiment: Laboratory model of impression taking: material set against filters loaded with Streptococcus mutans, rinsed, remaining growth on agar; format: cell-based; set-up: key: confluent growth, +++; many colonies, ++; few colonies, +; no growth, −; conditions: Impregum Garant L DuoSoft
Protocol: (§1) A laboratory system was worked out that models the clinical procedure of impression taking with concomitant contamination of the material, the removal of the material from the mouth and the subsequent cleaning by a brief rinse under tap water. The remaining contamination was determined by microbiological methods:
(§2) Impression material was applied into sterile Petri dishes. Filters loaded with Streptococcus mutans (DSM 20523) or stimulated human saliva were contacted with the material during setting. A Strep. mutans concentration of approx. 5E9 CFU/ml was chosen which is similar to the microorganismsl number found salviva. After setting, the material was removed from the contaminated filter and briefly rinsed with sterile water.
(§3) Remaining microorganisms were transferred to agar plates and the plates were incubated anaerobically at 37° C. to allow for growth of surviving microorganisms. Microorganisms growth was recorded as confluent growth, +++; many colonies, ++; few colonies, +; no growth, −.

salivary microorganisms = experiment: Laboratory model of impression taking: material set against filters loaded with stimulated human saliva, rinsed, remaining growth on agar; format: cell-based; set-up: key: confluent growth, +++; many colonies, ++; few colonies, +; no growth, −; conditions: Impregum Garant L DuoSoft
Protocol: as §1, §2, §3

[2] = Chlorhexidine 1.5 % in cured paste
[3] = Chlorhexidine 3.6 % in cured paste

## chlorhexidine diacetate hydrate [CHX diacetate hydrate]
[1]; Chlorhexidine 0.6-0.7 % in cured paste
  Growth of S. mutans (initial conc. 5E9 CFU/ml): −
[1]; Chlorhexidine 0.8 % in cured paste
  Growth of S. mutans (initial conc. 5E9 CFU/ml): −
[1]; [2]
  Growth of S. mutans (initial conc. 5E9 CFU/ml): −
[1]; [3]
  Growth of S. mutans (initial conc. 5E9 CFU/ml): −
[1]; Chlorhexidine <0.2 % in cured paste
  Growth of S. mutans (initial conc. 5E9 CFU/ml): +++
Salivary microorganisms; [2]
  Growth of salivary microorganisms (initial conc. 5E7 CFU/ml): −
Salivary microorganisms; [3]
  Growth of salivary microorganisms (initial conc. 5E7 CFU/ml): −
